In patent US20020037516A1, “Assay for identification of a test compound” (priority 2000, published 2002):

Legend:
[1] = test system: E. coli GAR; assay: TSR methyltransferase methylation of GAR RNA with [3H]SAM, titration of inhibitor; assay type: biochemical; details: 23S (or GAR), competition with methyltransferase at A-1067; FIG. 6; read-out: affinity (binding measured by following inhibition of methylation)
Procedure: RNA (0-2 μM) was incubated in 25 mM HEPES-KOH, pH 7.5, 25 mM NH4Cl, 5 mM MgCl2, 5 mM DTT with test compounds. The methylation reaction was started by adding 8 pmol TSR methyltransferase and 1 μCi [^3H]SAM (Amersham-Pharmacia). The final assay volume was 100 μl. The reaction was incubated 15 min at 25° C. and stopped by adding 1 vol. 2% TFA. The TFA precipitate was filtered through a 96-well glassfiber filterplate (Millipore Multiscreen FB 1.0 μM Glass Fiber Type B Filter). The filters were washed with 2 vol. of 2% TFA. 50 μl scintillation cocktail (Wallac Optiszint) was added to each well of the dried filter plate and incorporated [^3H]-radioactivity was determined in a Wallac Trilux scintillation counter.
The L11 ribosomal protein is an integral part of the GAR, and its presence inhibits methyltransferase activity [Bechthold & Floss, 1994]. Various concentrations of L11 were incubated with E. coli GAR and [^3H]SAM as described above. As expected, methylation was inhibited as L11 concentration increased.
Methyltransferase and thiostrepton thus compete for binding at A-1067, and binding of thiostiepton to 23S (or GAR) can be measured by following inhibition of methylation.

[2] = test system: mGAR; assay: Inhibition of tsr methylation activity by test compounds in 96 well plate, mGAR titration; assay type: biochemical; details: compound at 50 μM, 25° C., 30 minutes, increasing amounts of mGAR; FIG. 7
Procedure: The Ki value for a compound is determined by relating the Km in the presence and the Km in the absence of compound using the equation: […]
(§1) In an preferred format, enzyme binding and activity is measured by measuring the Michealis constant (Km) of the enzymatic reaction in the absence and presence of a constant concentration of the test compound. Increasing amounts of target RNA are incubated with the modifying enzyme and the yield of modified RNA product is measured for each point. Data from this substrate titration are fitted to a saturation curve by non-linear regression. The Michaelis constant Km is determined from the curve-fitting by routine methods.
Test compounds were assayed in a 96 well plate for inhibition of tsr methylation activity at 50 μM. Compounds were incubated at 25° C. for 30 minutes in the presence of [^3H]SAM and enzyme, and increasing amounts of mGAR were added. RNA was precipitated with 2% TFA, filtered, and scintillation counted in a Wallac Trilux instrument.

[3] = molecular target: tsr methyltransferase (thiostrepton resistance methyltransferase); assay: Inhibition of tsr methyltransferase methylation of mGAR (GTPase activating region of 23S rRNA): [3H]SAM incorporation, mGAR titration, 96-well (FIG. 7); assay type: biochemical, Streptomyces azureus; details: compounds at 50 μM, 25° C., 30 min, increasing mGAR, Ki=[I]/((Km(I)/Km)−1), tsr gene cloned, overexpressed in E. coli, read-out: TSR methyltransferase (GAR RNA methylation) Ki
Procedure: The Km for each titration is determined by fitting the data to the equation
Bmax: incorporation at RNA substrate saturation in cpm.
[RNA]: concentration of target RNA.
The Ki value for a compound is determined by relating the Km in the presence and the Km in the absence of compound using the equation:
[I]: concentration of the inhibitory compound
Km(I): Michaelis constant in the presence of inhibitor
Km: Michaelis constant in the absence of inhibitor
as §1, with “methods. […]” for “methods.”
RNA (0-2 μM) was incubated in 25 mM HEPES-KOH, pH 7.5, 25 mM NH4Cl, 5 mM MgCl2, 5 mM DTT with test compounds. […] 50 μl scintillation cocktail (Wallac Optiszint) was added to each well of the dried filter plate and incorporated [^3H]-radioactivity was determined in a Wallac Trilux scintillation counter. […]

[4] = test system: rRNA; assay: rRNA methylation by Erm E in the presence of erythromycin; assay type: biochemical; details: erythromycin 200 μM
Procedure: Erm E is inhibited by erythromycin (FIG. 21). Erythromycin inhibits enzyme activity most noticably when the RNA is folded in the presence of erythromycin (FIG. 21). One embodiment of the invention may therefore involve folding of the RNA in the presence of compound before measuring the activity of the methyltransferase on the RNA.
The reaction was performed in 50 μl 50 mM Tris/Cl, pH 7.5, 4 mM MgCl2, 40 mM KCl, 10 mM DTT, for 120 min at 37° C. with 0.04 μM rRNA and 6 μCi [3H]SAM. The erythromycin concentration was 200 μM.

C=C(NC(=O)C(=C)NC(=O)c1csc(C2=N[C@@H]3c4csc(n4)[C@H]4NC(=O)c5csc(n5)[C@H]([C@](C)(O)[C@@H](C)O)NC(=O)[C@H]5CSC(=N5)/C(=C/C)NC(=O)[C@H]([C@@H](C)O)NC(=O)c5csc(n5)[C@]3(CC2)NC(=O)[C@H](C)NC(=O)C(=C)NC(=O)[C@H](C)NC(=O)[C@H]([C@@H](C)CC)N[C@@H]2C=Cc3c([C@H](C)O)cc(nc3[C@H]2O)C(=O)O[C@@H]4C)n1)C(N)=O [thiostrepton]
Kd [1]: 1.1 µM

NC[C@@H]1O[C@H](O[C@H]2[C@@H](O)[C@H](O[C@@H]3[C@@H](O)[C@H](N)C[C@H](N)[C@H]3O[C@H]3O[C@H](CN)[C@@H](O)[C@H](O)[C@H]3N)O[C@@H]2CO)[C@H](N)[C@@H](O)[C@@H]1O [neomycin]
inhibition of methyltransferase (methylation) [2]: significant inhibition

NC[C@@H]1O[C@H](O[C@H]2[C@@H](O)[C@H](O[C@@H]3[C@@H](O)[C@H](N)C[C@H](N)[C@H]3O[C@H]3O[C@H](CN)[C@@H](O)[C@H](O)[C@H]3N)O[C@@H]2CO)[C@H](N)[C@@H](O)[C@@H]1O [Neomycin, neomycin]
Ki [3]: 9 µM

CC[C@H]1OC(=O)[C@H](C)[C@@H](O[C@H]2C[C@@](C)(OC)[C@@H](O)[C@H](C)O2)[C@H](C)[C@@H](O[C@@H]2O[C@H](C)C[C@H](N(C)C)[C@H]2O)[C@](C)(O)C[C@@H](C)C(=O)[C@H](C)[C@@H](O)[C@]1(C)O [erythromycin]
refolded rRNA methylation by Erm E ([4]; refolded rRNA 0.04 μM, 120 min at 37° C., FIG. 21): decrease
effect on rRNA methylation by Erm E ([4]; unfolded rRNA): no effect
